PubChem BioAssay (NCI)
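Five concentrations, 48 hours, 96-well plates. The concentration for full growth arrest is given as TGI.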

Key:
Assay in all cases: NCI anticancer screen, dose series, 48 h
MOLT-4 leukemia = tested on: MOLT-4 leukemia
M14 melanoma = tested on: M14 melanoma
MALME-3M melanoma = tested on: MALME-3M melanoma
A549 NSCLC = tested on: A549 NSCLC
SF-268 CNS = tested on: SF-268 CNS
HT29 colon = tested on: HT29 colon
CCRF-CEM leukemia = tested on: CCRF-CEM leukemia
HL-60(TB) leukemia = tested on: HL-60(TB) leukemia
RXF 393 renal = tested on: RXF 393 renal
OVCAR-8 ovarian = tested on: OVCAR-8 ovarian
HOP-62 NSCLC = tested on: HOP-62 NSCLC
HOP-92 NSCLC = tested on: HOP-92 NSCLC
TK-10 renal = tested on: TK-10 renal
A498 renal = tested on: A498 renal
DMS 114 small cell lung = tested on: DMS 114 small cell lung
M19-MEL melanoma = tested on: M19-MEL melanoma
UACC-62 melanoma = tested on: UACC-62 melanoma
NCI-H460 lung = tested on: NCI-H460 lung
COLO 205 colon = tested on: COLO 205 colon
HCC-2998 colon = tested on: HCC-2998 colon
CAKI-1 renal = tested on: CAKI-1 renal
SK-MEL-2 melanoma = tested on: SK-MEL-2 melanoma
ACHN renal = tested on: ACHN renal
NCI-H226 lung = tested on: NCI-H226 lung
SW-620 colon = tested on: SW-620 colon
OVCAR-3 ovarian = tested on: OVCAR-3 ovarian
UACC-257 melanoma = tested on: UACC-257 melanoma
OVCAR-4 ovarian = tested on: OVCAR-4 ovarian
SN12C renal = tested on: SN12C renal
LXFL 529 NSCLC = tested on: LXFL 529 NSCLC
NCI-H522 lung = tested on: NCI-H522 lung
DLD-1 colon = tested on: DLD-1 colon
KM12 colon = tested on: KM12 colon
OVCAR-5 ovarian = tested on: OVCAR-5 ovarian
KM20L2 colon = tested on: KM20L2 colon
SNB-75 CNS = tested on: SNB-75 CNS
RPMI-8226 leukemia = tested on: RPMI-8226 leukemia
SNB-19 CNS = tested on: SNB-19 CNS
SF-539 CNS = tested on: SF-539 CNS
DMS 273 small cell lung = tested on: DMS 273 small cell lung
HCT-15 colon = tested on: HCT-15 colon
XF 498 CNS = tested on: XF 498 CNS
SK-MEL-5 melanoma = tested on: SK-MEL-5 melanoma
K-562 leukemia = tested on: K-562 leukemia
SK-MEL-28 melanoma = tested on: SK-MEL-28 melanoma
IGROV1 ovarian = tested on: IGROV1 ovarian
EKVX NSCLC = tested on: EKVX NSCLC
NCI-H23 lung = tested on: NCI-H23 lung
786-0 renal = tested on: 786-0 renal
LOX IMVI melanoma = tested on: LOX IMVI melanoma
SF-295 CNS = tested on: SF-295 CNS
UO-31 renal = tested on: UO-31 renal
SK-OV-3 ovarian = tested on: SK-OV-3 ovarian
HCT-116 colon = tested on: HCT-116 colon
SR leukemia = tested on: SR leukemia
U251 CNS = tested on: U251 CNS
SNB-78 CNS = tested on: SNB-78 CNS

## CCCCCC1C2C(=O)NC(=O)C1C(=O)NC2=O (centres undefined)
MOLT-4 leukemia
  TGI: > 100 µM
M14 melanoma
  TGI: > 100 µM
MALME-3M melanoma
  TGI: > 100 µM
A549 NSCLC
  TGI: > 100 µM
SF-268 CNS
  TGI: > 100 µM
HT29 colon
  TGI: > 100 µM
CCRF-CEM leukemia
  TGI: > 100 µM
HL-60(TB) leukemia
  TGI: > 100 µM
RXF 393 renal
  TGI: > 100 µM
OVCAR-8 ovarian
  TGI: > 100 µM
HOP-62 NSCLC
  TGI: > 100 µM
HOP-92 NSCLC
  TGI: > 100 µM
TK-10 renal
  TGI: > 100 µM
A498 renal
  TGI: > 100 µM
DMS 114 small cell lung
  TGI: > 100 µM
M19-MEL melanoma
  TGI: > 100 µM
UACC-62 melanoma
  TGI: > 100 µM
NCI-H460 lung
  TGI: > 100 µM
COLO 205 colon
  TGI: > 100 µM
HCC-2998 colon
  TGI: > 100 µM
CAKI-1 renal
  TGI: > 100 µM
SK-MEL-2 melanoma
  TGI: > 100 µM
ACHN renal
  TGI: > 100 µM
NCI-H226 lung
  TGI: > 100 µM
SW-620 colon
  TGI: > 100 µM
OVCAR-3 ovarian
  TGI: > 100 µM
UACC-257 melanoma
  TGI: > 100 µM
OVCAR-4 ovarian
  TGI: > 100 µM
SN12C renal
  TGI: > 100 µM
LXFL 529 NSCLC
  TGI: > 100 µM
NCI-H522 lung
  TGI: > 100 µM
DLD-1 colon
  TGI: > 100 µM
KM12 colon
  TGI: > 100 µM
OVCAR-5 ovarian
  TGI: > 100 µM
KM20L2 colon
  TGI: > 100 µM
SNB-75 CNS
  TGI: > 100 µM
RPMI-8226 leukemia
  TGI: > 100 µM
SNB-19 CNS
  TGI: > 100 µM
SF-539 CNS
  TGI: > 100 µM
DMS 273 small cell lung
  TGI: > 100 µM
HCT-15 colon
  TGI: > 100 µM
XF 498 CNS
  TGI: > 100 µM
SK-MEL-5 melanoma
  TGI: > 100 µM
K-562 leukemia
  TGI: > 100 µM
SK-MEL-28 melanoma
  TGI: > 100 µM
IGROV1 ovarian
  TGI: > 100 µM
EKVX NSCLC
  TGI: > 100 µM
NCI-H23 lung
  TGI: > 100 µM
786-0 renal
  TGI: > 100 µM
LOX IMVI melanoma
  TGI: > 100 µM
SF-295 CNS
  TGI: > 100 µM
UO-31 renal
  TGI: > 100 µM
SK-OV-3 ovarian
  TGI: > 100 µM

## CC(C)OP(=O)(OC(C)C)c1ncn(-c2ccc([N+](=O)[O-])cc2)n1
MOLT-4 leukemia
  TGI: > 100 µM
M14 melanoma
  TGI: > 100 µM
MALME-3M melanoma
  TGI: > 100 µM
A549 NSCLC
  TGI: > 100 µM
SF-268 CNS
  TGI: > 100 µM
HCT-116 colon
  TGI: > 100 µM
HT29 colon
  TGI: > 100 µM
CCRF-CEM leukemia
  TGI: > 100 µM
HL-60(TB) leukemia
  TGI: > 100 µM
RXF 393 renal
  TGI: > 100 µM
OVCAR-8 ovarian
  TGI: > 100 µM
HOP-62 NSCLC
  TGI: > 100 µM
HOP-92 NSCLC
  TGI: > 100 µM
TK-10 renal
  TGI: > 100 µM
A498 renal
  TGI: > 100 µM
DMS 114 small cell lung
  TGI: > 100 µM
M19-MEL melanoma
  TGI: > 100 µM
UACC-62 melanoma
  TGI: > 100 µM
NCI-H460 lung
  TGI: > 100 µM
COLO 205 colon
  TGI: > 100 µM
HCC-2998 colon
  TGI: > 100 µM
CAKI-1 renal
  TGI: > 100 µM
SK-MEL-2 melanoma
  TGI: > 100 µM
ACHN renal
  TGI: > 100 µM
NCI-H226 lung
  TGI: > 100 µM
SW-620 colon
  TGI: > 100 µM
OVCAR-3 ovarian
  TGI: > 100 µM
UACC-257 melanoma
  TGI: > 100 µM
OVCAR-4 ovarian
  TGI: > 100 µM
SN12C renal
  TGI: > 100 µM
LXFL 529 NSCLC
  TGI: > 100 µM
NCI-H522 lung
  TGI: > 100 µM
DLD-1 colon
  TGI: > 100 µM
KM12 colon
  TGI: > 100 µM
OVCAR-5 ovarian
  TGI: > 100 µM
KM20L2 colon
  TGI: > 100 µM
SNB-75 CNS
  TGI: > 100 µM
RPMI-8226 leukemia
  TGI: > 100 µM
SR leukemia
  TGI: > 100 µM
SNB-19 CNS
  TGI: > 100 µM
SF-539 CNS
  TGI: > 100 µM
DMS 273 small cell lung
  TGI: > 100 µM
HCT-15 colon
  TGI: > 100 µM
XF 498 CNS
  TGI: > 100 µM
SK-MEL-5 melanoma
  TGI: > 100 µM
K-562 leukemia
  TGI: > 100 µM
SK-MEL-28 melanoma
  TGI: > 100 µM
IGROV1 ovarian
  TGI: > 100 µM
EKVX NSCLC
  TGI: > 100 µM
NCI-H23 lung
  TGI: > 100 µM
U251 CNS
  TGI: > 100 µM
SF-295 CNS
  TGI: > 100 µM
UO-31 renal
  TGI: > 100 µM
SK-OV-3 ovarian
  TGI: > 100 µM

## COc1cc(C2C(C(=O)Nc3ccc(Cl)c(Cl)c3)=C(C)NC(C)=C2C(=O)Nc2ccc(Cl)c(Cl)c2)ccc1O
MOLT-4 leukemia
  TGI: 26.9 µM
M14 melanoma
  TGI: 26.9 µM
MALME-3M melanoma
  TGI: 27.3 µM
A549 NSCLC
  TGI: 31.5 µM
SF-268 CNS
  TGI: 30.8 µM
HT29 colon
  TGI: 31.7 µM
CCRF-CEM leukemia
  TGI: 13.5 µM
HL-60(TB) leukemia
  TGI: 23.3 µM
RXF 393 renal
  TGI: 12.8 µM
OVCAR-8 ovarian
  TGI: 40.3 µM
HOP-62 NSCLC
  TGI: 23.1 µM
SNB-78 CNS
  TGI: 53.5 µM
HOP-92 NSCLC
  TGI: 11.1 µM
TK-10 renal
  TGI: 42.6 µM
A498 renal
  TGI: 28.5 µM
DMS 114 small cell lung
  TGI: 24.2 µM
M19-MEL melanoma
  TGI: 32 µM
NCI-H460 lung
  TGI: 35.5 µM
COLO 205 colon
  TGI: 30.2 µM
HCC-2998 colon
  TGI: 23.5 µM
CAKI-1 renal
  TGI: 34.1 µM
SK-MEL-2 melanoma
  TGI: 23.5 µM
ACHN renal
  TGI: 32.9 µM
NCI-H226 lung
  TGI: 40.8 µM
SW-620 colon
  TGI: 29 µM
OVCAR-3 ovarian
  TGI: 27.7 µM
UACC-257 melanoma
  TGI: 28.7 µM
OVCAR-4 ovarian
  TGI: 23 µM
SN12C renal
  TGI: 30.9 µM
LXFL 529 NSCLC
  TGI: 21.2 µM
NCI-H522 lung
  TGI: 14.7 µM
DLD-1 colon
  TGI: 22.4 µM
KM12 colon
  TGI: 27 µM
OVCAR-5 ovarian
  TGI: 38.8 µM
KM20L2 colon
  TGI: 54.7 µM
SNB-75 CNS
  TGI: 34.5 µM
RPMI-8226 leukemia
  TGI: 30.1 µM
SNB-19 CNS
  TGI: 25.6 µM
SF-539 CNS
  TGI: 24.9 µM
XF 498 CNS
  TGI: 33.1 µM
SK-MEL-5 melanoma
  TGI: 25.5 µM
K-562 leukemia
  TGI: 26.2 µM
SK-MEL-28 melanoma
  TGI: 27.3 µM
IGROV1 ovarian
  TGI: 42 µM
EKVX NSCLC
  TGI: 28.1 µM
NCI-H23 lung
  TGI: 27.5 µM
U251 CNS
  TGI: 34.7 µM
786-0 renal
  TGI: 25.3 µM
LOX IMVI melanoma
  TGI: 33.9 µM
SF-295 CNS
  TGI: 34.5 µM
UO-31 renal
  TGI: 25.6 µM
SK-OV-3 ovarian
  TGI: 34.5 µM
